As usually defined, the inhibition is the relative decrease from the control value, in per cent. For orientation: IC50 means the midpoint of a concentration-inhibition curve.

The target in one experiment is T1, GLIC (Gloeobacter violaceus, UniProt Q7NDN8).
T1 sequence (Q7NDN8 44-359): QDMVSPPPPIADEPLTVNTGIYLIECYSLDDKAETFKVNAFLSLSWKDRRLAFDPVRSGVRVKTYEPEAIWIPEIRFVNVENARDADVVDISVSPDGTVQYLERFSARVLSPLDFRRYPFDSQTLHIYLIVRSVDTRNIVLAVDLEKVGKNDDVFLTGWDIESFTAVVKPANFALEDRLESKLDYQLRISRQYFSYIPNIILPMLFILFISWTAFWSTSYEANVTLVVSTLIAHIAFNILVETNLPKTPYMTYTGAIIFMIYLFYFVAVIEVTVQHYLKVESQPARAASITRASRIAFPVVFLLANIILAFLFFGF
Conditions: cited from earlier work; for inhibition of GLIC: at clinical concentration; for nH: Hill number of the inhibition curve; for nH / currents inhibited by up to: EC20 concentration (pH 4.7-5.3) of protons; for IC50: currents elicited by an EC20 concentration (pH 4.7-5.3) of protons; for currents inhibited by up to: maximal inhibition.

In another experiment the test system is V242A mutated GLIC. On the procedure:
(§1) We monitored the inhibitory action of both anesthetics by two-electrode voltage clamp on oocytes expressing the GLIC channel. A typical experiment consists at activating the GLIC channel by an EC20 concentration of protons for 5 min, a period during which anesthetics are applied for 1min, 1 min after the onset of proton application.
(§2) Key residues contacting or neighboring propofol and desflurane in the 3D structure were mutated to alanine, or to more bulky residues in order to decrease the size of the binding pocket (mutants I202 A,Y,W, V242 A,M,W, T255A and I258A,M). […] Mutants were first characterized by their trace currents and proton dose-response curve (figures 3C-3F).

In another experiment the test system is I258A mutated GLIC. Conditions: activation at pH20 (pH 5.5 to 5.8). On the procedure: as §1, §2
Another experiment concerns I258M mutated GLIC. Conditions: activation at pH20 (pH 5.5 to 5.8). On the procedure: as §1, §2
The target of the next experiment is wild-type GLIC (Gloeobacter violaceus, UniProt Q7NDN8). In words: cell-based. On the procedure: as §1
The test system of a further experiment is V242M mutated GLIC. In words: Two-electrode voltage clamp on oocytes, mutant GLIC. Format: cell-based, Gloebacter violaceus. On the procedure: (§3) • Figure 3A. […] Xenopus laevis oocytes, holding potential -60 to -40 mV.
(§4) For desflurane inhibition (figures 3C-3F), full dose-inhibition curves were measured at pH20.
For orientation: Two-electrode voltage clamp is typically applied to oocytes expressing channels or transporters.

In another experiment the test system is I202W mutated GLIC. The description is as above. The format is cell-based, Gloebacter violaceus. On the procedure:
as §3, §4

Another experiment relates to I202A mutated GLIC. Described as above. The format is cell-based, Gloebacter violaceus. On the procedure: as §3, §4
In another experiment the test system is I202Y mutated GLIC. The experiment is described as above. Format: cell-based, Gloebacter violaceus. On the procedure: as §3, §4
The test system of the next experiment is T255A mutated GLIC. The description is as above. The format is cell-based, Gloebacter violaceus. On the procedure:
as §3, §4

[1] abbreviates: increased sensitivity for propofol.
The mark [2] stands for this setting: activation at pH20 (pH 5.5 to 5.8), 10 µM propofol (Fig. 3C).
Where [3] appears, read: activation at pH20 (pH 6.5-6.8), 10 µM propofol (Fig. 3C).

With `CCOC(=O)c1cncn1[C@H](C)c1ccccc1` [etomidate, ethyl 3-[(1R)-1-phenylethyl]imidazole-4-carboxylate], at GLIC, the “inhibition of GLIC” value is “robustly inhibited”.

For the compound `CC(C)c1cccc(C(C)C)c1O` [propofol, 2,6-diisopropylphenol], the “propofol inhibition compared with WT” value with V242A mutated GLIC (activation at pH20 (pH 5.5 to 5.8)) was “more inhibited”; in the experiment with I258A mutated GLIC it was “not significantly different from WT”; with I258M mutated GLIC it was “not significantly different from WT”; in the experiment on V242M mutated GLIC (setting [2]), “more inhibited”; with I202W mutated GLIC (setting [2]) it was “not significantly different from WT”; with I202A mutated GLIC (setting [2]) it was “not significantly different from WT”. The “propofol inhibition compared with WT” value was “not significantly different from WT” in the experiment on I202Y mutated GLIC (setting [3]) and “more inhibited” in the experiment with T255A mutated GLIC (setting [3]). For the same compound, the “propofol dose-inhibition curve compared with wt” value in the experiment on V242A mutated GLIC (setting [1]), in the experiment on V242M mutated GLIC (setting [1]) and with T255A mutated GLIC (setting [1]) was “shift of the dose-inhibition curve toward the left” in each case. Besides, the “inhibition of GLIC” value against wild-type GLIC (higher proton concentration (at the EC50)) is “no longer observed”; on GLIC it was “robustly inhibited”. Moreover, on wild-type GLIC (read-out: inhibition of GLIC), the inhibition at 10 µM amounted to 28%. Also, at GLIC, the nH is on record as 0.39. For the same compound, the IC50 on GLIC was 0.6 µM. Further, the “currents inhibited by up to” value at GLIC is on record as “up to 90%”.

Consider `FC(F)OC(F)C(F)(F)F` (stereo not shown) [desflurane, 2-(difluoromethoxy)-1,1,1,2-tetrafluoro-ethane], for which the “desflurane inhibition, full dose-inhibition curve compared with WT” value is “did not alter significantly” in the experiment on V242M mutated GLIC (at pH20); “did not alter significantly” in the experiment with I202W mutated GLIC (at pH20); “did not alter significantly” in the experiment on I202A mutated GLIC (at pH20); “did not alter significantly” with I202Y mutated GLIC (at pH20); “dramatic shift of the curve to the right” with T255A mutated GLIC (at pH20, decreased sensitivity toward desflurane). On GLIC, the nH was 0.24. Further, on GLIC, the “inhibition of GLIC” value was “robustly inhibited”. Moreover, at GLIC, the IC50 is 10 µM. Besides, on GLIC, the “currents inhibited by up to” value was “up to 90%”.

`CC(O)CC(=O)O` (stereo not shown) [3-hydroxybutyric acid]: at GLIC, the “inhibition of GLIC” value is listed as “robustly inhibited”.
